Results from EP4722219A1 (Gan & Lee Pharmaceuticals Co., Ltd., priority 2023, dated 2024).

Tests used:
Assay type in all cases: cell-based
T-47D cells = assay: Inhibition of cell proliferation in T-47D cells (CCK-8); details: Homo sapiens, T47D, 144 h, 6 days treatment, CCK-8 cell viability
Summary of the method: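 Viability by CCK-8 after a 6-day, 37 °C/5% CO2 exposure of T-47D cells (3,000/well, RPMI-1640 + 10% FBS) to graded PROTAC concentrations. Inhibition rates gave the IC50.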

MCF-7 cells = assay: Inhibition of cell proliferation in MCF-7 cells (CCK-8); details: MCF-7 cell proliferation, 6 days treatment
Summary of the method: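 IC50 from CCK-8 viability-based inhibition after 6-day treatment of MCF-7 cells (800 cells/well, 10% FBS DMEM, 37 °C, 5% CO2) with serially varied compound concentrations.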

ERα [1] = target: T1, ERα (Homo sapiens, UniProt P03372); assay: ERα degradation in T-47D cells (Western blot); details: 4 hours
T1 sequence (P03372 1-595): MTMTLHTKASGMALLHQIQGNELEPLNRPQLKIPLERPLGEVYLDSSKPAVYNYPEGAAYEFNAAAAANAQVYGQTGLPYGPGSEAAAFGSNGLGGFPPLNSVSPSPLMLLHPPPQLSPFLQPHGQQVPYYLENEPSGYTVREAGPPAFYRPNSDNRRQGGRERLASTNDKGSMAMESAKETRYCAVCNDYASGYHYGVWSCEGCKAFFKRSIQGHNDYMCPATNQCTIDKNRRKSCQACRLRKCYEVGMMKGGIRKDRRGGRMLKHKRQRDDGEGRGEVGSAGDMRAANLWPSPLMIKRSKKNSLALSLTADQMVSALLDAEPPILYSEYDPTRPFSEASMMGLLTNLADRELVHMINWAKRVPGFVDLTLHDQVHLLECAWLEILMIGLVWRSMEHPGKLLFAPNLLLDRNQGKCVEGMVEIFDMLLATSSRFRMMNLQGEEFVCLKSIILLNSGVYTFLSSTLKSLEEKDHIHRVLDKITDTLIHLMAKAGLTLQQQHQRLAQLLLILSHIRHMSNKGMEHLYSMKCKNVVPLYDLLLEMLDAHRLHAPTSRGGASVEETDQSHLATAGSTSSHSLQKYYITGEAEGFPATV
Summary of the method: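 ERα was quantified by immunoblot of RIPA lysates (20 µg total protein), normalised to an internal reference band, and degradation was expressed against control. Lysates came from T-47D cells plated at 3×10^5 cells/well and dosed 4 hours at 37°C with compound at 0.15-1000 nM final concentration.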

ERα [2] = target: T1, ERα; assay: ERα degradation in MCF-7 cells (Western blot); parameters: host or cells: MCF-7; details: 4 hours
Summary of the method: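 ERα degradation was quantified by immunoblot densitometry, ERα signal divided by internal-reference signal and compared with control. Compounds were applied to MCF-7 cells for 4 hours at final concentrations of 0.15–1000 nM, with 20 µg total protein loaded per lane.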

Structure (SMILES) | IC50 (T-47D cells) [nM] | IC50 (MCF-7 cells; Homo sapiens, MCF7, 144 h) [nM] | Degradation rate of ERα in T-47D cells (%) (ERα [1]; 1nM) | Degradation rate of ERα in T-47D cells (%) (ERα [1]; 10nM) | Degradation rate of ERα in MCF-7 cells (%) (ERα [2]; 1nM) | Degradation rate of ERα in MCF-7 cells (%) (ERα [2]; 10nM) | IC50 (MCF-7 cells) [nM]
Cn1c(=O)n(C2CCC(=O)NC2=O)c2cc3c(cc21)C1(CCN(C2CCN(C(=O)C4CCN(c5ccc([C@@H]6c7ccc(O)cc7CC[C@@H]6c6ccccc6)cc5)CC4)CC2)CC1)CO3 (stereo partly drawn) [ER-P-14, 3-(1'-(1-(1-(4-((1R,2S)-6-hydroxy-2-phenyl-1,2,3,4-tetrahydronaphthalen-1-yl)phenyl)piperidine-4-carbonyl)piperidin-4-yl)-1-methyl-2-oxo-1,2-dihydro-3H,6H-spiro[benzofuro[5,6-d]imidazole-7,4'-piperidin]-3-yl)piperidine-2,6-dione] | 0.81 | 34.6 | 64 | 61 | 69 | 63 | –
Cn1c(=O)n(C2CCC(=O)NC2=O)c2cc3c(cc21)C1(CCN(C(=O)C2CN(CC4CCN(c5ccc([C@@H]6c7ccc(O)cc7CC[C@@H]6c6ccccc6)cc5)CC4)C2)CC1)CO3 (stereo partly drawn) [ER-P-26] | 0.51 | 125 | 58 | 70 | 43 | 40 | –
O=C1CC[C@H](NC(=O)c2cc3c(cc2F)N2CCN(C[C@H]4CC[C@@H](OC5CCN(c6ccc([C@@H]7c8ccc(O)cc8CC[C@@H]7c7ccccc7)cc6)CC5)CC4)C[C@@H]2CO3)C(=O)N1 [ER-P-67, (R)-N-((S)-2,6-dioxopiperidin-3-yl)-9-fluoro-3-(((1S,4S)-4-((1-(4-((1R,2S)-6-hydroxy-2-phenyl-1,2,3,4-tetrahydronaphthalen-1-yl)phenyl)piperidin-4-yl)oxy)cyclohexyl)methyl)-1,2,3,4,4a,5-hexahydrobenzo[b]pyrazi no[1,2-d][1,4]oxazine-8-carboxamide] | 92.5 | 2990 | 6 | 20 | 28 | 13 | –
O=C1CC[C@H](NC(=O)c2ccc3c(c2)OCC[C@H]2CN(CC4CCC(OC5CCN(c6ccc([C@@H]7c8ccc(O)cc8CC[C@@H]7c7ccccc7)cc6)CC5)CC4)CCN32)C(=O)N1 (stereo partly drawn) [ER-P-44, (S)-N-((S)-2,6-dioxopiperidin-3-yl)-3-((4-((1-(4-((1R,2S)-6-hydroxy-2-phenyl-1,2,3,4-tetrahydronaphthalen-1-yl)phenyl)piperidin-4-yl)oxy)cyclohexyl)methyl)-2,3,4,4a,5,6-hexahydro-1H-benzo[b]pyrazino[1,2-d][1,4]oxazepine-9-carboxamide] | 1.26 | – | -29 | 30 | 10 | 39 | 805
O=C1CCC(N2Cc3c(ccc4c3OCC43CCC4(CC3)CN(C3CCN(C(=O)C5CCN(c6ccc([C@@H]7c8ccc(O)cc8CC[C@@H]7c7ccccc7)cc6)CC5)CC3)C4)C2=O)C(=O)N1 (stereo partly drawn) [ER-P-6] | 0.86 | < 0.256 | 61 | 83 | 55 | 71 | –
Cn1c(=O)n(C2CCC(=O)NC2=O)c2cc3c(cc21)C1(CCN(C2CCN(c4ccc([C@@H]5c6ccc(O)cc6CC[C@@H]5c5ccccc5)cc4)CC2)CC1)CO3 (stereo partly drawn) [ER-P-11, 3-(1'-(1-(4-((1R,2S)-6-hydroxy-2-phenyl-1,2,3,4-tetrahydronaphthalen-1-yl)phenyl)piperidin-4-yl)-1-methyl-2-oxo-1,2-dihydro-3H,6H-spiro[benzofuro[5,6-d]imidazole-7,4'-piperidin]-3-yl)piperidine-2,6-dione] | 20.8 | 3540 | 12 | 12 | -18 | -33 | –
C[C@@H]1Cc2cc(O)ccc2C(c2c(F)cc(N3CCC4(CCC(N5CCC6(CC5)COc5c6ccc6c5n(C)c(=O)n6C5CCC(=O)NC5=O)CC4)CC3)cc2F)N1CC(F)F (stereo partly drawn) [ER-P-29, 3-(1'-(3-(4-((3R)-2-(2,2-difluoroethyl)-6-hydroxy-3-methyl-1,2,3,4-tetrahydroisoquinolin-1-yl)-3,5-difluorophenyl)-3-azaspiro[5.5]undecan-9-yl)-1-methyl-2-oxo-1,2-dihydro-3H,7H-spiro[benzofuro[6,7-d]imidazole-6,4'-piperidin]-3-yl)piperidine-2,6-dione] | 0.92 | 140 | 53 | 41 | 54 | 25 | –
Cn1c(=O)n(C2CCC(=O)NC2=O)c2cc3c(cc21)C1(CCN(C2CCC4(CC2)CCN(c2ccc([C@@H]5c6ccc(O)cc6CC[C@@H]5c5ccccc5)cc2)CC4)CC1)CO3 (stereo partly drawn) [ER-P-60] | 1.41 | 0.362 | 21 | 51 | 14 | 36 | –
O=C1CCC(Nc2ccc3c(c2)OC2(CC3)CN(C[C@H]3CC[C@@H](OC4CCN(c5ccc([C@@H]6c7ccc(O)cc7CC[C@@H]6c6ccccc6)cc5)CC4)CC3)C2)C(=O)N1 (stereo partly drawn) [ER-P-33, 3-((1-(((1S,4s)-4-((1-(4-((1R,2S)-6-hydroxy-2-phenyl-1,2,3,4-tetrahydronaphthalen-1-yl)phenyl)piperidin-4-yl)oxy)cyclohexyl)methyl)spiro[azetidine-3,2'-chroman]-7'-yl)amino)piperidine-2,6-dione] | 15.5 | 2330 | -16 | 32 | -5 | -9 | –
C[C@@H]1Cc2cc(O)ccc2C(c2c(F)cc(N3CCC4(CC3)CC(N3CCC5(CC3)CCC3(CC5)COc5c3ccc3c5CN(C5CCC(=O)NC5=O)C3=O)C4)cc2F)N1CC(F)F (stereo partly drawn) [ER-P-27, 3-(1"-(7-(4-((3R)-2-(2,2-difluoroethyl)-6-hydroxy-3-methyl-1,2,3,4-tetrahydroisoquinolin-1-yl)-3,5-difluorophenyl)-7-azaspiro[3.5]nonan-2-yl)-6-oxo-6,8-dihydro-2H,7H-dispiro[furo[2,3-e]isoindole-3,1'-cyclohexane-4',4"-piperidin]-7-yl)piperidine-2,6-dione] | 1.34 | < 0.256 | 20 | 53 | 26 | 62 | –
O=C1CCC(N2Cc3c(ccc4c3OCC43CCC4(CCN(C5CCN(c6ccc([C@@H]7c8ccc(O)cc8CC[C@@H]7c7ccccc7)cc6)CC5)CC4)CC3)C2=O)C(=O)N1 (stereo partly drawn) [ER-P-58] | 2.19 | 12.8 | 35 | 71 | 42 | 69 | –
O=C1CC[C@H](NC(=O)c2ccc3c(c2F)OCC32CCN(C3CC4(CCN(c5ccc([C@@H]6c7ccc(O)cc7CC[C@@H]6c6ccccc6)cc5)CC4)C3)CC2)C(=O)N1 [ER-P-37, N-((S)-2,6-dioxopiperidin-3-yl)-7-fluoro-1'-(7-(4-((1R,2S)-6-hydroxy-2-phenyl-1,2,3,4-tetrahydronaphthalen-1-yl)phenyl)-7-azaspiro[3.5]nonan-2-yl)-2H-spiro[benzofuran-3,4'-piperidine]-6-carboxamide] | 18.9 | 1400 | 6 | 4 | -6 | -9 | –
